Assay results: the supplement of paper PMC6045584
± gives the standard deviation of the averaged measurements.

Experiments:
FORETINIB = compound: COc1cc2c(Oc3ccc(NC(=O)C4(C(=O)Nc5ccc(F)cc5)CC4)cc3F)ccnc2cc1OCCCN1CCOCC1 [FORETINIB]; test: surviving fraction relative to DMSO-only wells; higher = less growth inhibition; conditions: exposure time: 5 days
Procedure, shortened: (§1)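 Log-phase tumour cells were seeded at 250–500 per well in 384-well plates and, from 24 hours after seeding, exposed continuously for five days to inhibitors at 0.5, 1, 5, 10, 50, 100, 500 and 1000 nM. Surviving fraction is CellTiter-Glo luminescence normalised to the median of DMSO-only wells. Luminescence was measured after 10 minutes at room temperature, and only lines screened three times with replicate Pearson r >0.7 and median Z' >0.3 were kept.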

[1] = compound: COc1cc2ncnc(Nc3ccc(F)c(Cl)c3)c2cc1NC(=O)/C=C/CN1CCCCC1; test: as above; conditions: exposure time: 5 days
Procedure, shortened: as §1

| Test System | surviving fraction (FORETINIB; 0.5 nM) | surviving fraction (FORETINIB; 1 nM) | surviving fraction (FORETINIB; 5 nM) | surviving fraction (FORETINIB; 10 nM) | surviving fraction (FORETINIB; 50 nM) | surviving fraction (FORETINIB; 100 nM) | surviving fraction (FORETINIB; 500 nM) | surviving fraction (FORETINIB; 1000 nM) | surviving fraction ([1]; 0.5 nM) | surviving fraction ([1]; 1 nM) | surviving fraction ([1]; 5 nM) | surviving fraction ([1]; 10 nM) | surviving fraction ([1]; 50 nM) | surviving fraction ([1]; 100 nM) | surviving fraction ([1]; 500 nM) | surviving fraction ([1]; 1000 nM) |
| --- | --- | --- | --- | --- | --- | --- | --- | --- | --- | --- | --- | --- | --- | --- | --- | --- |
| MDAMB453 BREAST | 1.1 ± 0.067 | 1.09 ± 0.062 | 1.12 ± 0.058 | 1.13 ± 0.087 | 1.12 ± 0.025 | 1.08 ± 0.04 | 0.952 ± 0.041 | 0.763 ± 0.035 | 1.05 ± 0.021 | 1.04 ± 0.08 | 1.03 ± 0.1 | 1.09 ± 0.093 | 1.07 ± 0.044 | 0.887 ± 0.048 | 0.705 ± 0.033 | 0.509 ± 0.069 |
| MDAMB436 BREAST | 0.976 ± 0.091 | 0.923 ± 0.086 | 0.982 ± 0.043 | 1.05 ± 0.14 | 1.02 ± 0.043 | 0.91 ± 0.2 | 0.856 ± 0.16 | 0.687 ± 0.047 | 0.922 ± 0.08 | 0.975 ± 0.077 | 0.895 ± 0.021 | 0.971 ± 0.17 | 0.996 ± 0.053 | 0.89 ± 0.11 | 0.771 ± 0.065 | 0.706 ± 0.085 |
| SIHA CERVIX | 1.12 ± 0.02 | 1.18 ± 0.04 | 1.09 ± 0.046 | 1.09 ± 0.081 | 1.01 ± 0.066 | 1.01 ± 0.031 | 0.667 ± 0.019 | 0.523 ± 0.0076 | 1.05 ± 0.12 | 0.994 ± 0.043 | 1.02 ± 0.082 | 1.1 ± 0.074 | 1.04 ± 0.11 | 1.06 ± 0.11 | 0.862 ± 0.055 | 0.672 ± 0.067 |
| OS25HAL BONE | 1.01 ± 0.045 | 1.04 ± 0.032 | 1.08 ± 0.0095 | 1 ± 0.018 | 0.924 ± 0.023 | 0.951 ± 0.031 | 0.375 ± 0.038 | 0.193 ± 0.0084 | 0.995 ± 0.013 | 0.972 ± 0.011 | 1.02 ± 0.032 | 0.981 ± 0.0017 | 1.05 ± 0.044 | 1.07 ± 0.015 | 1.012 ± 0.0087 | 0.964 ± 0.011 |
| BT20 BREAST | 1.11 ± 0.032 | 1.14 ± 0.13 | 1.12 ± 0.026 | 1.13 ± 0.045 | 1.22 ± 0.12 | 1.13 ± 0.037 | 0.382 ± 0.091 | 0.136 ± 0.017 | 1.08 ± 0.071 | 1 ± 0.12 | 0.895 ± 0.015 | 0.934 ± 0.13 | 1.05 ± 0.028 | 0.996 ± 0.13 | 1.13 ± 0.045 | 0.809 ± 0.16 |
| HCT15 LARGE INTESTINE | 1.08 ± 0.1 | 1.09 ± 0.084 | 1.06 ± 0.09 | 1.05 ± 0.073 | 1.07 ± 0.091 | 1.11 ± 0.097 | 0.217 ± 0.046 | 0.203 ± 0.042 | 1.03 ± 0.044 | 1.09 ± 0.06 | 1.05 ± 0.043 | 1.06 ± 0.069 | 1.02 ± 0.033 | 1.06 ± 0.031 | 1.03 ± 0.088 | 0.821 ± 0.057 |
| A549 LUNG | 1.083 ± 0.0085 | 1.1 ± 0.018 | 1.08 ± 0.028 | 1.05 ± 0.016 | 1.06 ± 0.045 | 1.06 ± 0.041 | 0.703 ± 0.012 | 0.542 ± 0.021 | 1.03 ± 0.089 | 0.985 ± 0.053 | 0.986 ± 0.08 | 0.962 ± 0.034 | 1.04 ± 0.066 | 1.02 ± 0.024 | 1 ± 0.044 | 1.02 ± 0.042 |
| YAMATO SYNOVIAL | 0.998 ± 0.072 | 1.16 ± 0.098 | 1 ± 0.12 | 1.02 ± 0.078 | 0.585 ± 0.025 | 0.369 ± 0.035 | 0.295 ± 0.017 | 0.272 ± 0.018 | 1.23 ± 0.053 | 1.29 ± 0.18 | 1.3 ± 0.02 | 1.45 ± 0.17 | 1.31 ± 0.095 | 1.39 ± 0.068 | 1.31 ± 0.16 | 1.27 ± 0.077 |
| SCC003 HEADNECK | 1.09 ± 0.068 | 1.14 ± 0.033 | 1.12 ± 0.074 | 1.11 ± 0.038 | 1.04 ± 0.066 | 1.06 ± 0.088 | 0.912 ± 0.046 | 0.485 ± 0.0087 | 1.01 ± 0.031 | 0.95 ± 0.19 | 0.845 ± 0.11 | 0.861 ± 0.082 | 0.554 ± 0.072 | 0.535 ± 0.079 | 0.405 ± 0.053 | 0.356 ± 0.031 |
| VCAP PROSTATE | 0.975 ± 0.059 | 0.96 ± 0.13 | 1.12 ± 0.094 | 1.03 ± 0.082 | 1.11 ± 0.1 | 1.08 ± 0.2 | 0.547 ± 0.09 | 0.4 ± 0.044 | 0.95 ± 0.04 | 0.769 ± 0.036 | 0.967 ± 0.08 | 1.04 ± 0.12 | 1.04 ± 0.048 | 0.996 ± 0.14 | 0.725 ± 0.078 | 0.406 ± 0.025 |
| HELA CERVIX | 1.09 ± 0.037 | 1.05 ± 0.091 | 1.1 ± 0.039 | 1.05 ± 0.052 | 1.14 ± 0.11 | 1.15 ± 0.042 | 0.659 ± 0.073 | 0.07233 ± 0.00058 | 1.07 ± 0.055 | 1.07 ± 0.051 | 1 ± 0.076 | 1.04 ± 0.023 | 1.18 ± 0.038 | 1.17 ± 0.025 | 1.19 ± 0.072 | 1.13 ± 0.071 |
| C33A CERVIX | 1.02 ± 0.059 | 1.06 ± 0.086 | 1.1 ± 0.042 | 1.14 ± 0.098 | 1.03 ± 0.041 | 1.04 ± 0.047 | 0.596 ± 0.057 | 0.508 ± 0.029 | 0.793 ± 0.044 | 0.93 ± 0.15 | 0.899 ± 0.017 | 0.802 ± 0.085 | 0.517 ± 0.051 | 0.428 ± 0.022 | 0.358 ± 0.019 | 0.296 ± 0.02 |
| HU09 BONE | 0.923 ± 0.11 | 1.01 ± 0.063 | 1 ± 0.08 | 0.958 ± 0.082 | 0.625 ± 0.1 | 0.496 ± 0.087 | 0.201 ± 0.016 | 0.0877 ± 0.0029 | 1.09 ± 0.03 | 0.996 ± 0.062 | 1.14 ± 0.028 | 1.11 ± 0.12 | 1.15 ± 0.019 | 1.01 ± 0.12 | 0.635 ± 0.0066 | 0.432 ± 0.026 |
| SCC47 HEADNECK | 1.17 ± 0.042 | 1.2 ± 0.09 | 1.18 ± 0.029 | 1.19 ± 0.06 | 1.12 ± 0.014 | 1.02 ± 0.035 | 0.97 ± 0.047 | 0.51 ± 0.024 | 0.927 ± 0.031 | 0.976 ± 0.041 | 0.804 ± 0.1 | 0.745 ± 0.028 | 0.625 ± 0.026 | 0.59 ± 0.025 | 0.512 ± 0.031 | 0.375 ± 0.039 |
| SUM149.B1*.S BREAST | 1.13 ± 0.068 | 1.19 ± 0.078 | 1.12 ± 0.022 | 1.11 ± 0.021 | 1.11 ± 0.059 | 1.09 ± 0.054 | 0.855 ± 0.033 | 0.515 ± 0.067 | 1.06 ± 0.066 | 1.03 ± 0.035 | 1.02 ± 0.02 | 1.03 ± 0.043 | 0.962 ± 0.026 | 0.977 ± 0.036 | 0.833 ± 0.026 | 0.914 ± 0.043 |
| MG63 BONE | 1.05 ± 0.012 | 1.07 ± 0.048 | 1.09 ± 0.043 | 1.11 ± 0.05 | 0.901 ± 0.037 | 0.817 ± 0.026 | 0.567 ± 0.015 | 0.322 ± 0.02 | 1.04 ± 0.072 | 1 ± 0.049 | 1.05 ± 0.033 | 1.06 ± 0.062 | 1.04 ± 0.056 | 1.03 ± 0.08 | 0.911 ± 0.039 | 0.89 ± 0.073 |
| SAOS2 BONE | 1.17 ± 0.045 | 1.12 ± 0.072 | 1.12 ± 0.048 | 1.17 ± 0.069 | 1.15 ± 0.15 | 1.08 ± 0.15 | 0.611 ± 0.082 | 0.162 ± 0.03 | 1.17 ± 0.02 | 1.14 ± 0.017 | 1.14 ± 0.038 | 1.13 ± 0.07 | 1.1 ± 0.062 | 1.13 ± 0.064 | 0.762 ± 0.044 | 0.513 ± 0.028 |
| SYO1 SYNOVIAL | 0.989 ± 0.038 | 0.971 ± 0.05 | 0.929 ± 0.026 | 0.914 ± 0.027 | 0.821 ± 0.013 | 0.749 ± 0.028 | 0.25 ± 0.0099 | 0.189 ± 0.026 | 0.9794 ± 0.0088 | 0.993 ± 0.068 | 0.91 ± 0.023 | 0.929 ± 0.048 | 0.971 ± 0.055 | 0.974 ± 0.039 | 0.784 ± 0.018 | 0.422 ± 0.022 |
| OSHN BONE | 1.08 ± 0.05 | 1.07 ± 0.031 | 1.08 ± 0.018 | 1.05 ± 0.041 | 1.03 ± 0.035 | 1.01 ± 0.039 | 0.735 ± 0.057 | 0.0927 ± 0.013 | 1.07 ± 0.034 | 1.06 ± 0.044 | 1.08 ± 0.033 | 1.05 ± 0.035 | 1.1 ± 0.037 | 1.1 ± 0.027 | 1.06 ± 0.047 | 1.029 ± 0.0075 |
| SG31 HEADNECK | 1.38 ± 0.16 | 1.41 ± 0.11 | 1.1 ± 0.18 | 1.09 ± 0.21 | 0.969 ± 0.14 | 1.12 ± 0.11 | 1.02 ± 0.17 | 0.898 ± 0.087 | 0.973 ± 0.13 | 0.87 ± 0.19 | 0.617 ± 0.16 | 0.624 ± 0.086 | 0.556 ± 0.14 | 0.519 ± 0.07 | 0.486 ± 0.1 | 0.524 ± 0.021 |
